# Measurements taken from patent US9395375B2, “Method of treating sigma 1 receptor-expressing tumors with interleukin 24” (Research Foundation of the City University of New York, priority 2013, dated 2016).
# How the values were obtained:
# [1] = test system: metastatic prostate cancer cell lines (LNCaP, DU145 and PC-3); assay: Clonogenic (colony formation) assay after Ad.IL-24 infection with or without S1R agonist; type: cell-based, human; details: Ad.IL-24 plus 10 μM (+)-SKF10047; 2 weeks
# From the text: (§1) Referring to FIG. 1A, FIG. 1B and FIG. 1C, to test this hypothesis Ad.IL-24 was used to treat normal human immortalized epithelial cells (RWPE1), and three metastatic prostate cancer cell lines (LNCaP, DU145 and PC-3) in the presence or absence of the specific S1R agonist, (+)SKF-10047, and measured cell viability and induction of apoptosis by MTT, clonogenic, and AnnexinV-FITC/PI assays. (+)SKF-10047 inhibited Ad.IL-24-mediated killing in PC-3, LNCaP and DU145 cells.
# (§2) In FIG. 1A, cells were infected with 100 pfu/cell of Ad.vector or Ad.IL-24, and treated with or without 10 μM (+)-SKF10047—a S1R agonist. Cell viability was determined by MTT assay 4 days post-infection. MTT absorbance of untreated control cells was set at 1 to determine relative number of viable cells. […] In FIG. 1B, cells were incubated in the absence or presence of 10 μM (+)-SKF10047 after infection with Ad.IL-24. Forty-eight hours post-infection, percentage of apoptosis was determined by staining with AnnexinV-FITC/PI. […] In FIG. 1C, cells were incubated in the absence or presence of 10 μM (+)-SKF10047 after infection with Ad.IL-24. Cells were subjected to clonogenic assay for 2 weeks. Results shown are an average of three independent experiments ±SD.
# Colony formation assays. Cells were infected with 100 pfu/cell with Ad.vector or Ad.IL-24. The next day, 200 to 500 cells were seeded to determine colony-forming ability. […]
# [2] = test system: BiP, CHOP, and p-eIF2a proteins; assay: Western blot analysis of ER stress markers; type: cell-based; details: 100 pfu/cell Ad.IL-24 plus 10 μM (+)-SKF10047; 48 h
# Description: Cells were infected with 100 pfu/cell of Ad.vector or Ad.IL-24, and treated with or without 10 μM (+)-SKF10047 (SKF) for indicated times. In FIG. 2A, changes in BiP, CHOP, and p-eIF2a proteins were evaluated by Western blot analysis 48 h after indicated treatments. […] Up-regulation by IL-24 of several ER stress markers is shown, including p-eIF2a, CHOP, and BiP, were inhibited by treatment with (+)SKF-10047.
# Western Blot Analysis. Protein extracts were prepared with RIPA buffer containing a mixture of protease inhibitors as described in Sauane M, Su Z Z, Dash R, et al. “Ceramide plays a prominent role in MDA-7/IL-24-induced cancer-specific apoptosis” J Cell Physiol. 2010 March; 222(3):546-55. Fifty micrograms of protein was applied to a 12% SDS/PAGE and transferred to nitrocellulose membranes. The membranes were probed with polyclonal or monoclonal antibodies to IL-24, p-eIF2a, BiP, CHOP, Sigma 1 Receptor, and beta-actin.
# [3] = test system: metastatic prostate cancer cell lines (LNCaP, DU145 and PC-3); assay: MTT cell viability assay after Ad.IL-24 infection with or without S1R agonist; type: cell-based, human
# From the text: as §1
# as §2, with “Cells were subjected to clonogenic assay for 2 weeks. Results shown are an average of three independent experiments ±SD.” left out
# MTT Assays. […] Cell growth and viable cell numbers were monitored by 3-(4,5 dimethylthiazol-2-yl)-2,5-diphenyltetrazolium bromide (MTT) staining as described in Sauane M, Su Z Z, Dash R, et al. “Ceramide plays a prominent role in MDA-7/IL-24-induced cancer-specific apoptosis” J Cell Physiol. […]
# [4] = test system: metastatic prostate cancer cell lines (LNCaP, DU145 and PC-3); assay: AnnexinV-FITC/PI apoptosis assay after Ad.IL-24 infection with or without S1R agonist; type: cell-based, human; details: for apoptosis by Ad.IL-24 (summary statements): prostate cancer cells, effect of S1R agonist
# From the text: as §1, §2
# Annexin V binding assays. Cells were trypsinized, washed once with complete medium and PBS, resuspended in 0.5 ml of binding buffer containing 2.5 mmol/L CaCl2, and stained with allophycocyanin-labeled Annexin V (Becton Dickinson Biosciences, Palo Alto, Calif.) and propidium iodide (PI) for 15 min at room temperature. Flow cytometry assays were performed as described in Sauane M, Su Z Z, Dash R, et al. “Ceramide plays a prominent role in MDA-7/IL-24-induced cancer-specific apoptosis” J Cell Physiol. 2010 March; 222(3):546-55.
# prostate DU145 = assay: Calcium imaging (Fura-2), cytosolic calcium; type: cell-based, human; details: Ad.IL-24 plus 10 μM (+)-SKF10047, 12 hours
# Description: FIG. 2B depicts a ratio of calcium ratios for cells infected with 100 pfu/cell of Ad.vector or Ad.IL-24, and treated with or without 10 μM (+)-SKF10047. The ratios are the levels cytosolic calcium at T=0 and T=12 hours. A determination was made concerning whether Ad.IL-24 caused any changes in the cytosolic levels of Ca^++ in prostate cancer cells and if Ca^++ mobilization is S1R-dependent after Ad.IL-24 infection. Ad.IL-24 infection increased cytosolic Ca^++ levels in prostate DU145 within 12 hours. The increase in Ca^++ was blocked by S1R agonist (+)-SKF10047.
# Calcium imaging. For Calcium (Ca^++) imaging, cells were plated in 35 mm glass bottom petri dishes (MatTek) and allowed to attach for 12 h prior to treatment(s). Inhibitors were added 4 h after infection with adenovirus. After 12 h, cells were then rinsed with a Ringer's solution maintained at 37° C. Cells were then incubated in Ringer's solution containing 0.5 μM Fura-2 tetra-acetoxymethyl ester (Fura-2) (Molecular Probes), 10% Pluronic F127 and 250 μm sulfinpyrazone (Sigma-Aldrich, Inc) for 40 min at 22° C. Fura-2 was excited by alternating 340 and 380 nm light and images were obtained every 50 ms as a measure of Ca^++ concentration. Background intensity was zero. […]
# DU-145 cells = assay: Reactive oxygen species (ROS) generation, DCFH-DA fluorescence; type: cell-based, human; details: Ad.IL-24 plus 10 μM (+)SKF-10047 for 24 h
# Description: Intracellular ROS levels were measured with 10 μM DCF-DA 30 min after treatments. The results are expressed as the mean±S.D. of three independent experiments. The time course of mitochondrial changes (ROS generation) were determined after treatment of DU145 cells with Ad.IL-24. Cells were infected with Ad.IL-24, collected at 24 h, and stained for ROS production with dichlorofluorescin diacetate (DCFH-DA). […] Taken together, the inhibition by an S1R agonist of IL-24-mediated ER stress, Ca^++ mobilization and ROS production, further strengthen the hypothesis that IL-24 action in cancer cells is mediated by an antagonistic effect of IL-24 on S1R.
# Assessment of reactive oxygen species (ROS) generation. DU-145 cells were seeded in 96-well plates at a concentration of 1×10^4 cells/well and were infected with Ad.IL-24 for 12 h. The cell cultures were treated with 10 μM 2,7-dichloro-fluorescein diacetate (DCFH-DA; Sigma-Aldrich, St. Louis, Mo.) in PBS for 30 min After incubation, the media was discarded, and the cells were washed with PBS. The fluorescence intensity was determined using a fluorescence plate reader at 485 nm for excitation and 530 nm for emission.
# S1R [5] = molecular target: T1, S1R (Homo sapiens, UniProt Q99720); assay: Immunofluorescence co-localization of IL-24 and S1R; type: cell-based; details: DU145 cells infected with Ad.IL-24; 24 h; confocal immunofluorescence
# T1 construct: DU-145 cells were infected with Ad.IL-24; endogenous in cells; host or cells: DU145 cells (ATCC), infected with Ad.IL-24 or Ad.vector
# Description: In FIG. 3A and FIG. 3B, comparative co-localization of IL-24 and S1R proteins was analyzed in DU145 cells after infection with the Ad.IL-24 virus. […] DU-145 cells were infected with Ad.IL-24. After 24 h, cells were fixed and IL-24 and S1R proteins were detected by immunofluorescence using anti-IL-24 and anti-S1R antibodies. The analysis of co-localization of IL-24 and S1R was performed using a DMI6000B inverted confocal microscope with TCS SP5 system (Leica Microsystems CMS). Without wishing to be bound to any particular theory, S1R is believed to interact with IL-24.
# Immunofluorescence. Cells were seeded onto chamber slides (Falcon; BD Biosciences, San Jose, Calif.) and maintained in DMEM with 10% fetal bovine calf serum, 24 hours postinfection, cells were fixed with 2% paraformaldehyde, permeabilized by 0.1% Triton X-100, and then incubated with primary antibodies: IL-24, and S1R. Controls were incubated with only the secondary antibodies under the same experimental conditions.
# S1R [6] = molecular target: T1, S1R; assay: Co-immunoprecipitation of S1R with IL-24; type: binding; details: 100 pfu/cell Ad.IL-24, 48 hours
# Description: In FIG. 3A, DU145 cells were infected with 100 pfu/cell of Ad.vector or Ad.IL-24 and immunoprecipitation analysis was done 48 hours later using S1R antibody.
# In FIG. 3B, DU-145 cells were infected with 100 pfu/cell of Ad.vector or Ad.IL-24 and immunoprecipitation analysis was done 48 hours later using IL-24 antibody.
# Co-immunoprecipitation of S1R with IL-24. Cells were infected with Ad.vector or Ad.IL-24. After 48 hours, protein was extracted from subconfluent cultures using lysis buffer (Pierce, Rockford, Ill.) containing 1 mM phenylmethlsulfonylfluoride (Sigma-Aldrich, Inc) and quantified using the BCA protein assay kit (Pierce, Rockford, Ill.). Antibodies were conjugated to Protein-G beads according, the Sigma Protein-G Immunoprecipitation Kit manufacturer's instructions (Sigma-Aldrich, Inc). Western blot analysis was done as described before using the following primary antibodies at 1:1,000 dilutions: anti-IL-24, and anti-S1R. Secondary antibodies specific for heavy chain of immunoglobulin G (IgG) were used as the light chain of IgG interfered with detection of IL-24 because of similar size.
# T1 sequence (Q99720 whole entry): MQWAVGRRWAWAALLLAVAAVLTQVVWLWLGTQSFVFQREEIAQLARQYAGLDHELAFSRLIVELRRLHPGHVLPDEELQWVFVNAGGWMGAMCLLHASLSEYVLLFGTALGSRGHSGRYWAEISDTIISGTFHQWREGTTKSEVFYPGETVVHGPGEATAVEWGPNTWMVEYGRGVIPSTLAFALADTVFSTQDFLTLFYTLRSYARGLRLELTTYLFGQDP
Molecule,"cytotoxic effect of Ad.IL-24, clonogenic assay (FIG. 1C) [1]","Up-regulation by IL-24 of ER stress markers p-eIF2a, CHOP, and BiP (FIG. 2A) [2]","cytotoxic effect of Ad.IL-24, cell viability by MTT (FIG. 1A) ([3]; 100 pfu/cell Ad.IL-24 plus 10 μM (+)-SKF10047, 4 days post-infection)","Ad.IL-24-mediated killing ([3]; PC-3, LNCaP and DU145 cells, viability and apoptosis by MTT, clonogenic and AnnexinV-FITC/PI assays, effect of S1R agonist)","cytotoxic effect of Ad.IL-24, percentage of apoptosis by AnnexinV-FITC/PI (FIG. 1B) ([4]; Ad.IL-24 plus 10 μM (+)-SKF10047, 48 hours post-infection)",apoptosis by Ad.IL-24 (summary statements) [4],apoptosis by Ad.IL-24 (summary statements) ([4]; listed as (+) SK-10047),increase in Ca++ after Ad.IL-24 infection (FIG. 2B) (prostate DU145),Ad.IL-24 increased ROS (FIG. 2C) (DU-145 cells),co-localization with S1R (S1R [5]),"interaction with S1R: immunoprecipitation using anti-S1R antibody, immunoblotting with anti-IL-24 antibody (FIG. 3A) (S1R [6]; DU145 cells)","interaction with S1R: immunoprecipitation using anti-IL-24 antibody, probed with anti-S1R antibody (FIG. 3B) (S1R [6]; DU-145 cells)"
(+)-SKF10047,substantially negated,inhibited,substantially negated,inhibited,substantially negated,inhibits,blocks,blocked,inhibited,,,
"IL-24: member of the IL-10 cytokine family, immunomodulatory cytokine generated from Ad.IL-24 infection (protein, UniProt Q13007 52-206, looked up) Interleukin-24: QEFHFGPCQVKGVVPQKLWEAFWAVKDTMQAQDNITSARLLQQEVLQNVSDAESCYLVHTLLEFYLKTVFKNYHNRTVEVRTLKSFSTLANNFVLIVSQLQPSQENEMFSIRDSAHRRFLLFRRAFKQLDVEAALTKALGEVDILLTWMQKFYKL",,,,,,,,,,co-localized,physical interaction,coimmunoprecipitated
